Series [1] has as its system HUVECs. Put plainly: HUVEC transwell migration. Conditions: 5 μM. The format is cell-based, human. Here is the method:
(§1) Human umbilical vein endothelial cells (HUVECs) were purchased from Lonza (Walkersville, MD) and maintained in the endothelial cell growth medium (PromoCell, Heidelberg, Germany), under a 5% CO2 atmosphere. MCF10A cells from ATCC were stably transfected with either pcDNA 3.2/V5-DEST (vector control), V5-EYA2 or V5-EYA2(mut). Transwell migration experiments were performed as previously described.

The subject of series [2] is mouse aortic rings. Put plainly: Mouse aortic ring assay (ex vivo sprouting angiogenesis, VEGF-stimulated). The note with it: 5 μM, 10 days. Here is the method:
The preparation of rat collagen and the aortic ring assay were carried out as previously described, [50]. Mice were 4 to 6 week old female C57BL/6, and aortic ring explants were cultured at 37°C in a humidified incubator under a 5% CO2 atmosphere.
Each inhibitor was serially diluted (between 0.25 mM and 7.5 mM) to stocks of 1000× the working concentrations in sterile 100% DMSO in order to achieve an equal final concentration of DMSO (0.1% v/v) in all culture conditions. For the experiments, the compounds were diluted in EBM containing 2.5% FBS, penicillin/streptomycin and 20 ng/ml VEGF165 (R&D Systems, Minneapolis, MN). Each compound was applied from the first day of culture over a 10-day period with medium change every two days. In all experiments, the vehicle (DMSO, 0.1%) was used as control. The sprouting density was derived from counting the number of branches per ring, and the extent of angiogenic sprouting was estimated by measuring the total surface area covered by the vessels.

For series [3], the system named is zebrafish embryos. Put plainly: Analysis of zebrafish vasculature, Tg(kdrl:EGFP) embryos. Conditions: exposure from about 5 hpf, analysis at 28–30 hpf. The format is in vivo. Here is the method:
Tg(kdrl:EGFP)^s843 zebrafish line was used for vascular analysis. Embryos were maintained in fish water until the 50% epiboly stage (5.25 hpf) and were transferred into wells of 24-well plate containing the inhibitors in fish water. All incubation was performed at 28.5°C. The analysis for vascular defects was performed at the 28–30 hpf stages, and embryos were imaged using a fluorescence microscope.

Series [4] has as its target T1, PTP1B (Homo sapiens, UniProt P18031).
T1 construct: made in house
T1 sequence (P18031 1-435): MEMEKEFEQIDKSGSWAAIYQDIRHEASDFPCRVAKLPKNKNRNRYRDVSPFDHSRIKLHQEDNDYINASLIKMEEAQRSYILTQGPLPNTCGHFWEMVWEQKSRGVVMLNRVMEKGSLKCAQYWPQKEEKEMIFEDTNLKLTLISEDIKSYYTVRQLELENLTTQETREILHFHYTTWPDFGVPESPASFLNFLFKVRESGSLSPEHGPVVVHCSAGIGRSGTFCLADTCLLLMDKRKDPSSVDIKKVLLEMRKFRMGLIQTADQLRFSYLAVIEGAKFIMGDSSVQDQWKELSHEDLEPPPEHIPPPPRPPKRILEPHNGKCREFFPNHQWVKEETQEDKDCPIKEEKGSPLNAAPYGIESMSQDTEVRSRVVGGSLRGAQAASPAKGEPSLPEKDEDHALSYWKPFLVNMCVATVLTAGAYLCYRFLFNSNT
Description: pNPP hydrolysis by PTP1B. The class given is biochemical. The note with it: substrate pNPP. Here is the method: The catalytic domain of human Eyes Absent 2 was similarly sub-cloned as a poly-histidine fusion construct in the vector pDEST-527. Fusion protein was purified by Ni-NTA chromatography and followed by size-exclusion chromatography over a Superdex-75 column. The relative purity of protein samples was determined using SDS-PAGE. PTP1B was purified as described previously.
(§2) Compounds were dissolved in DMSO and diluted as needed. […] Reactions were incubated at 30°C for 30 minutes and quenched with 100 mM EDTA pH 10. IC50 values were then calculated directly from regression curves using PRISM. All reported values are the mean of two independent experiments.

Series [5] deals with CYP2C9. The arrangement: method as in PMID 20214587. Conditions: cited from earlier work.
The target of series [6] is T2, human EYA3 (Homo sapiens, UniProt Q99504).
T2 construct: residues 127–573 of NM_001990, isoform 1; His-GST (poly-histidine, glutathione-S-transferase) with TVMV protease site (cleaved yes); made in house
T2 sequence (Q99504 127-573): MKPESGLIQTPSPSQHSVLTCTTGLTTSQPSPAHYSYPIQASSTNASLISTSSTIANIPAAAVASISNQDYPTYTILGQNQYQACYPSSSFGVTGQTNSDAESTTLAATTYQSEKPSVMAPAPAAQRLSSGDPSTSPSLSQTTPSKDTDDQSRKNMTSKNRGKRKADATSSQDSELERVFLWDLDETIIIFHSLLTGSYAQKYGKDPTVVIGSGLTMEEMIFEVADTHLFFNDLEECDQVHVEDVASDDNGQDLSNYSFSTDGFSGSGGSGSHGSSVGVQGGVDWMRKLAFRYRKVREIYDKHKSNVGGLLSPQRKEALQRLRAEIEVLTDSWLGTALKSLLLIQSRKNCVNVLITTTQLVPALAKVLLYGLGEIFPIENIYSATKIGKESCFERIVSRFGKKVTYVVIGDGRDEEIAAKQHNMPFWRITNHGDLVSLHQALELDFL
Put plainly: pNPP hydrolysis by full-length EYA3. The format is biochemical.
Source text: The catalytic domain (ED) of mouse Eyes Absent 3 (Eya3(223–510)) was purified as described before. Human Eyes Absent 3 isoform 2 (representing the major species identified in human cell lines by mass spectrometry and residues 127–573 of NM_001990, isoform 1) was sub-cloned into pDEST565 to express a poly-histidine- Glutathione-S-transferase (His-GST) tagged fusion protein with a TVMV protease site. The protein was purified by glutathione-S-transferase affinity chromatography followed by TVMV cleavage, Ni-NTA chromatography, and finally size exclusion chromatography. […]
as §2

The test system of series [7] is urate transporter SLC22A12 (URAT1). The arrangement: method as in PMID 21272127. The note with it: cited from earlier work.
Series [8] relates to MCF10A-EYA2 cells. Description: Transwell migration of MCF10A cells over-expressing EYA2. The format is cell-based. Conditions: for effect on migration of MCF10A(EYA2) cells: 7.5 μM. Here is the method: as §1
The test system of series [9] is HUVECs. Put plainly: HUVEC tubulogenesis assay on Matrigel. The format is cell-based, human. The note with it: for effect on tubulogenesis, in words: up to 7.5 μM. Here is the method: Tubulogenesis assays were performed in 15-well micro-slide (ibidi LLC, Verona WI), using growth factor-reduced matrigel (BD Bioscience, Billerica, MA). The matrix was prepared by loading 10 μl of matrigel in each micro-slide well and allowing it to solidify for 30 minutes at 37°C. HUVECs were trypsinized and resuspended at 100,000 cell/ml in EBM +2.5% FBS. 50 μl (5,000 cell) were loaded on top of the solidified matrigel and the preparation was incubated for 20 hours at 37°C in a humidified incubator in a 5% CO2 atmosphere. Bright field images were taken using an inverted microscope at 2.5× magnification, which allowed imaging of the whole well in two pictures that were later merged in Photoshop. Tubular structures were traced and counted using NeuroJ (NIH, USA). In experiments with inhibitor, the inhibitor was added to the cell suspension before loading. Each sample was loaded in triplicate, and each treatment was repeated for reproducibility.

By IC50 is commonly meant the concentration that inhibits the measured activity by half. Low readings indicate greater potency, high ones weaker potency.

As for `CCc1oc2ccccc2c1C(=O)c1cc(Br)c(O)c(Br)c1` [Compound 1, Benzbromarone], the “effect on HUVEC cell motility” value in series [1] is listed as “attenuated HUVEC cell motility”. In series [2], the “effect on sprouting of aortic rings” value was “shorter sprouts and significantly lower microvascular density”. In series [3], the “effect on the developing vasculature” value is on record as “significant reduction of intersegmental vessels even at the lowest dose tested (0.25 μM)”. For the same compound, inhibition in [4] was half-maximal at 53.8 µM (IC50). For the same compound, the “inhibition of CYP2C9” value in [5] is recorded as “inhibit CYP2C9”. The “inhibitory effect in the presence of detergent” value in series [6] (0.01% Triton X-100) was “inhibitory effect was retained”. In addition, the “inhibition of URAT1” value in [7] is given as “inhibition of the urate transporter SLC22A12 (URAT1)”. Also, in [8], the “effect on migration of MCF10A(EYA2) cells” value is reported as “significantly inhibited cell migration”. Moreover, the “effect on tubulogenesis, in words” value in series [9] is reported as “effective only at the highest concentrations tested (7.5 μM)”.

With `CCc1oc2ccccc2c1C(=O)c1ccc(O)cc1` [Compound 1a, Benzarone], in series [1], the “effect on HUVEC cell motility” value is “attenuated HUVEC cell motility”. The “effect on sprouting of aortic rings” value in [2] was “shorter sprouts and significantly lower microvascular density”. Also, the “effect on the developing vasculature” value in series [3] is on record as “reduced the number of intersegmental vessels, but were less potent”. The IC50 in [4] was more than 150 µM; in [6] (full-length human EYA3, substrate pNPP), 17 µM. The “inhibition of CYP2C9” value in series [5] is on record as “inhibit CYP2C9”. In series [7], the “inhibition of URAT1” value is “inhibition of the urate transporter SLC22A12 (URAT1)”. In [8] (1 μM (lowest concentration tested), MCF10A-EYA2), the “reduction of cell motility” value was “over 50%”. Besides, the “effect on migration of MCF10A(EYA2) cells” value in [8] is “significantly inhibited cell migration”. The “reduction in tube formation” value in series [9] (2.5 μM) is approximately 50%. Moreover, the “effect on tubulogenesis, in words” value in series [9] was “potently inhibited tubulogenesis in a dose-dependent fashion”.

Values taken from article PMC3335822 (PLoS ONE, 2012).
